The values that follow come from US20080221100A1, “SOLUBLE EPOXIDE HYDROLASE INHIBITORS” (Arete Therapeutics, Inc., priority 2006, published 2008).

Data set [1] has as its system soluble epoxide hydrolase (sEH). Kind of data set: Fluorescent assay for mouse and human soluble epoxide hydrolase (CMNPC substrate). It is filed as biochemical, mouse or human, not specified. From the text:
Fluorescent Assay for Mouse and Human Soluble Epoxide Hydrolase Recombinant mouse sEH (MsEH) and human sEH (HsEH) were produced in a baculovirus expression system as previously reported. Grant et al., J. Biol. Chem., 268:17628-17633 (1993); Beetham et al., Arch. Biochem. Biophys., 305:197-201 (1993). The expressed proteins were purified from cell lysate by affinity chromatography. Wixtrom et al., Anal. Biochem., 169:71-80 (1988). Protein concentration was quantified using the Pierce BCA assay using bovine serum albumin as the calibrating standard. […] They contained no detectable esterase or glutathione transferase activity which can interfere with the assay. The assay was also evaluated with similar results in crude cell lysates or homogenate of tissues. The IC50s for each inhibitor were determined according to the following procedure: Substrate: [drawing 155] […] Jones P. D. et al.; Analytical Biochemistry 2005; 343: pp. 66-75) Solutions: Bis/Tris HCl 25 mM pH 7.0 containing 0.1 mg/mL of BSA (buffer […] at 0.25 mM in DMSO. Mother solution of enzyme in buffer A (Mouse sEH at 6 μg/mL and Human sEH at 5 μg/mL). Inhibitor dissolved in DMSO at the appropriate concentration. Protocol: In a black 96 well plate, fill all the wells with 150 μL of buffer A. Add 2 μL of DMSO in well A2 and A3, and then add 2 μL of inhibitor solution in A1 and A4 through A12. Add 150 μL of buffer A in row A, then mix several time and transfer 150 μL to row B. Repeat this operation up to row H. The 150 μL removed from row H is discarded. Add 20 μL of buffer A in column 1 and 2, then add 20 μL of enzyme solution to column 3 to 12. Incubate the plate for 5 minutes in the plate reader at 30° C. During incubation prepare the working solution of substrate by mixing 3.68 mL of buffer A (4×0.920 mL) with 266 μL (2×133 μL) of substrate solution). At t=0, add 30 μL of working substrate solution with multi-channel pipette labeled “Briggs 303” and start the reading ([S]final: 5 μM). Read with ex: 330 nm (20 nm) and em: 465 nm (20 nm) every 30 second for 10 minutes. The velocities are used to analyze and calculate the IC50s.

For `O=C(Nc1ccc(C(F)(F)F)cc1)NC1CCN(C(=O)CCO)CC1` [Compound 49, 1-(1-(3-hydroxypropanoyl)piperidin-4-yl)-3-(4-(trifluoromethyl)phenyl)urea], the melting point (as a rule, the temperature of the solid-liquid transition) was 158 to 160 °C. Besides, the % Inhibition – broadly, the change of the read-out against control, counted positive when it falls – in data set [1] (Conc 200 nM) is on record as 90%.

`O=C(Nc1ccc(C(F)(F)F)cc1)NC1CCN(S(=O)(=O)CCCO)CC1` [Compound 50, 1-(1-(3-hydroxypropylsulfonyl)piperidin-4-yl)-3-(4-(trifluoromethyl)phenyl)urea] displayed a melting point of 200 to 205 °C. For the same compound, the “% Inhibition” value in data set [1] (Conc 200 nM) is given as 98%.

In turn, `COCC(=O)N1CCC(NC(=O)Nc2ccc(C(F)(F)F)cc2)CC1` [Compound 51, 1-(1-(2-methoxyacetyl)piperidin-4-yl)-3-(4-(trifluoromethyl)phenyl)urea] had a melting point of 214 to 215 °C. Further, in data set [1] (Conc 2000 nM), the “% Inhibition” value is given as 100%.

As for `CC(C)(C)[S+]([O-])N1CCC(NC(=O)Nc2ccc(C(F)(F)F)cc2)CC1` (centres unmarked) [Compound 52, 1-(1-(tert-butylsulfinyl)piperidin-4-yl)-3-(4-(trifluoromethyl)phenyl)urea], the melting point was in the range of 229 to 230 °C. The “% Inhibition” value in data set [1] (Conc 200 nM) is 94%.

With `O=C(Nc1ccc(C(F)(F)F)cc1)NC1CCN(C(=O)CCCO)CC1` [Compound 53, 1-(1-(4-hydroxybutanoyl)piperidin-4-yl)-3-(4-(trifluoromethyl)phenyl)urea], the melting point lay within 175 to 182 °C. Moreover, the “% Inhibition” value in data set [1] (Conc 200 nM) came out at 100%.

`CC(C)(C)S(=O)(=O)N1CCC(NC(=O)Nc2ccc(C(F)(F)F)cc2)CC1` [Compound 54, 1-(1-(tert-butylsulfonyl)piperidin-4-yl)-3-(4-(trifluoromethyl)phenyl)urea] displayed a melting point of 260 to 261 °C. For the same compound, the “% Inhibition” value in data set [1] (Conc 200 nM) came out at 97%.

Consider `O=C(Nc1ccc(C(F)(F)F)cc1)NC1CCN(C(=O)N2CCOCC2)CC1` [Compound 55, 1-(1-(morpholine-4-carbonyl)piperidin-4-yl)-3-(4-(trifluoromethyl)phenyl)urea], for which the melting point lay within 234 to 236 °C. Besides, the “% Inhibition” value in data set [1] (Conc 2000 nM) is listed as 43%.
